Test results published in publication PMC9916883, “Betaine- and L-Carnitine-Based Ionic Liquids as Solubilising and Stabilising Agents for the Formulation of Antimicrobial Eye Drops Containing Diacerein” (International Journal of Molecular Sciences, 2023).
Values joined by “and” are separate entries in the source; they are usually repeats but may differ in a detail not shown here. Identical values can stand only once. Like-named read-outs stand apart in the source and are kept apart here. One block for each compound: values may come before it.

Experiments:
[1] = Critical aggregation concentration (CAC) by surface tension; assay type: physicochemical; conditions: in water; for critical aggregation concentration (CAC): via surface tension
Method: The CACs of the ILs were determined by measuring the surface tension (Tensiometer du Nouy, Force Tensiometer K6 from KRÜSS (GmbH)) of aqueous solutions with increasing IL concentrations. Milli-Q H2O was used as a reference, with γ equal to 71 ± 1.3 mN/m at 25 ± 2 °C (Dortmund databank reference, 71.5 ± 0.5 mN/m 24 ± 1.4 °C). Surface tension values were plotted vs. logarithms of the ILs’ concentrations, linear fits were applied to the data points, and CAC was determined as the intersection of the two linear fits relative to the initial surface tension depression and the further plateau.

[2] = IL aggregates' size and zeta potential in aqueous solutions (DLS, Zetasizer); assay type: physicochemical
Method: The size distribution and zeta potential values of the ILs’ aggregates in aqueous solutions were evaluated by using a Zetasizer Nano ZS (Malvern) at 25 °C. The samples were prepared by adding an excess of either DIA or Rhe (5 mg/mL) to the aqueous IL solutions, incubating them for 30 min at 25 °C, and finally removing the excess drugs by centrifugation. […] In contrast, for PB solutions, the solutions were prepared in water, and […] of 100 mM pH 7 phosphate buffer was added per 1 mL of aqueous solution, directly in the cuvette, before the dynamic light scattering (DLS) analysis started. The concentrations of the solubilised drug were determined by UV–Vis analysis.

[3] = tested on: type II porcine gastric mucin; test: Mucoadhesion by microrheological method; assay type: physicochemical
Method: The measurements were performed using the Zetasizer Nano ZS instrument, as previously reported. The microrheological characterisation of the ILs was performed using type II porcine gastric mucin. Porcine gastric mucin was used because no ocular mucins were available, and as it has already been used for ocular models. Briefly, a 3 mg/mL suspension of type II porcine gastric mucin was prepared in Milli-Q water and filtered through 0.45 µm cellulose acetate filters. Next, 0.27 M and 0.20 M solutions of both ionic liquids in deionised water were prepared (corresponding to concentrations 15% higher and lower than the CAC, respectively). One millilitre of each sample to be tested had the following composition: 5 µL of tracer (latex polystyrene particles, diameter 500 nm, Beckman), 7.38 mg/mL of IL solution, 0.3 mg of mucin, and 8.1 mg/mL of 5% NaCl. As a reference, 1 mL of sample was prepared with the same composition but without the ILs. All measurements were carried out in triplicate.

[4] = tested on: BALB/3T3 clone A31 fibroblast cells; test: Cytotoxicity screening (WST-1); assay type: cell-based, murine; conditions: Mus musculus, 4 h incubation, read-out: IC50 of cell viability
Method: BALB/3T3 clone A31 fibroblast cells were grown in Dulbecco’s Modified Eagle Medium (DMEM), supplemented with 2 mM L-glutamine, 1% penicillin/streptomycin, and 10% bovine calf serum. Cells were grown in a CO2 incubator (Heracell 150i series) at 37 °C and 5% CO2, with cells sub-cultured at 80–90% confluency. The cell monolayers were rinsed with PBS and treated with trypsin–EDTA to detach the cells before their resuspension in fresh media. A subconfluent monolayer of BALB/3T3 clone A31 fibroblast cells was trypsinised, centrifuged at 1000 rpm for 5 min, resuspended in growth medium, and counted.
A cytotoxicity screening was carried out for both ILs (range […]), as well as DIA and Rhe (0.5–200 mg/mL). Briefly, BALB/3T3 clone A31 fibroblast cells were seeded in each well of 96-well plates at a seeding density of 6 × 10^3 cells/well for 24 h, until 60–70% confluence was reached. After 24 h, the medium was then removed from each well and replaced with DMEM containing the samples.
After 4 h of incubation, the media were removed, replaced with fresh medium containing 10% WST-1 reagent solution, and maintained for 4 h at 37° C with 5% CO2. Afterwards, formazan dye absorbance was quantified at 450 nm with the reference wavelength at 655 nm by using a multilabel reader (BioTek 800/TS, Thermo Scientific).

S. aureus W4 = test: Killing assay; assay type: cell-based, Staphylococcus aureus; conditions: 3 h incubation in 5% TSB, ILs 0.27 M; for bactericidal effect: DIA 0.34 M; for CFU after treatment (limit of detection): DIA 0.34 M if loaded
Method: (§1) To this end, the bacterial strains were grown in TSB until the exponential phase, and approximately 5 × 10^4 CFU/mL-contained in 10 μL-was added to 5 μL of TSB, 35 μL of water, and 50 μL of one of the following solutions corresponding to the eye drop compositions tested in vivo: Bet6 or Carn6 with 0.27 M or 0.34 M DIA, plain DIA (0.34 M) solution, or plain Bet6/plain Carn6, both at 0.27 M. All solutions were prepared in CB. The samples were incubated at 37 °C with shaking for 3 h. A sample containing 0.6% DMSO (corresponding to the highest concentration of DMSO tested) was used as a control. Following incubation, the samples were diluted 10-fold in LB and plated on tryptone soy agar (TSA, Oxoid) to determine the number of CFU. Bactericidal activity was defined as a reduction of at least 3 Log10 in the number of viable bacteria as compared to the inoculum.

P. aeruginosa ATCC 27853 = test: Killing assay; assay type: cell-based, Pseudomonas aeruginosa; conditions: 3 h incubation in 5% TSB, ILs 0.27 M; for bactericidal effect: DIA 0.34 M; for CFU after treatment (limit of detection): DIA 0.34 M if loaded
Method: as §1

[5] = IL 180 μg/mL, DIA + (saturation), CB pH5
[6] = IL 180 μg/mL, Rhe + (saturation), PB pH7
[7] = IL 200 μg/mL, DIA + (saturation), CB pH5
[8] = IL 200 μg/mL, DIA + (saturation), H2O pH4
[9] = IL 200 μg/mL, Rhe + (saturation), H2O pH4
[10] = mucin with IL at 0.20 M (lower than CAC)
[11] = mucin with IL at 0.27 M (higher than CAC)

surface tension at the CAC (σ) [1]: 34.2 mN/m | critical aggregation concentration (CAC) [1]: 0.227 M and 0.227 ± 0.016 M | PDI ([2]; IL 90 μg/mL, no drug, H2O pH4): 0.01 ± 0.002 | Ø (aggregates size) ([2]; IL 90 μg/mL, no drug, H2O pH4): 0.80 ± 0.03 nm | PDI ([2]; IL 105 μg/mL, no drug, H2O pH4): 0.01 ± 0.005 | Ø (aggregates size) ([2]; IL 105 μg/mL, no drug, H2O pH4): 0.96 ±0.07 nm | PDI ([2]; IL 170 μg/mL, no drug, H2O pH4): 0.01 ± 0.005 | Ø (aggregates size) ([2]; IL 170 μg/mL, no drug, H2O pH4): 1.96 ± 0.30 nm | PDI [2, 5]: 0.01 ± 0.005 | Ø (aggregates size) [2, 5]: 1.73 ± 0.40 nm | ζ (zeta potential) [2, 5]: 2.82 ± 1.17 mV | PDI [2, 6]: 0.03 ± 0.005 | Ø (aggregates size) [2, 6]: 1.71 ± 0.49 nm | ζ (zeta potential) [2, 6]: 5.77 ± 0.54 mV | PDI ([2]; IL 180 μg/mL, no drug, CB pH5): 0.01 ± 0.005 | Ø (aggregates size) ([2]; IL 180 μg/mL, no drug, CB pH5): 1.76 ± 0.38 nm | ζ (zeta potential) ([2]; IL 180 μg/mL, no drug, CB pH5): 0.65 ± 0.53 mV | PDI ([2]; IL 180 μg/mL, no drug, PB pH7): 0.01 ± 0.005 | Ø (aggregates size) ([2]; IL 180 μg/mL, no drug, PB pH7): 1.79 ± 0.41 nm | ζ (zeta potential) ([2]; IL 180 μg/mL, no drug, PB pH7): 8.93 ± 0.94 mV | PDI [2, 7]: 0.02 ± 0.005 | Ø (aggregates size) [2, 7]: 2.01 ± 0.60 nm | ζ (zeta potential) [2, 7]: 0.16 ± 1.85 mV | PDI [2, 8]: 0.02 ± 0.005 | Ø (aggregates size) [2, 8]: 1.69 ± 0.92 nm | ζ (zeta potential) [2, 8]: 9.53 ± 1.68 mV | PDI [2, 9]: 0.01 ±0.005 | Ø (aggregates size) [2, 9]: 1.63 ± 0.21 nm | ζ (zeta potential) [2, 9]: 8.17 ± 0.94 mV | PDI ([2]; IL 200 μg/mL, no drug, CB pH5): 0.03 ± 0.005 | Ø (aggregates size) ([2]; IL 200 μg/mL, no drug, CB pH5): 1.97 ± 0.44 nm | ζ (zeta potential) ([2]; IL 200 μg/mL, no drug, CB pH5): 2.62 ± 0.96 mV | PDI ([2]; IL 200 μg/mL, no drug, H2O pH4): 0.01 ± 0.005 | Ø (aggregates size) ([2]; IL 200 μg/mL, no drug, H2O pH4): 1.81 ± 0.41 nm | ζ (zeta potential) ([2]; IL 200 μg/mL, no drug, H2O pH4): 13.70 ± 1.60 mV | Relative Viscosity [3, 10]: 0.79 ± 0.01 cP | Relative Viscosity [3, 11]: 1.32 ± 0.13 cP
Compound: CCCCCCOC(=O)C[N+](C)(C)C.[Br-] [Bet6, (2-hexyloxy-2-oxoethyl)-trimethylammonium bromide]
IC50 [4]: 7500 µg/mL | IC50 ([4]; murine fibroblasts): 26.8 mM | bactericidal effect (S. aureus W4): strong bactericidal effect | CFU after treatment (limit of detection) (S. aureus W4): < 100 CFU/mL | bactericidal effect (P. aeruginosa ATCC 27853): strong bactericidal effect | CFU after treatment (limit of detection) (P. aeruginosa ATCC 27853): < 100 CFU/mL

surface tension at the CAC (σ) [1]: 36.1 mN/m | critical aggregation concentration (CAC) [1]: 0.226 M and 0.226 ± 0.020 M | PDI ([2]; IL 90 μg/mL, no drug, H2O pH4): 0.01 ± 0.002 | Ø (aggregates size) ([2]; IL 90 μg/mL, no drug, H2O pH4): 1.17 ± 0.03 nm | PDI ([2]; IL 105 μg/mL, no drug, H2O pH4): 0.01 ± 0.002 | Ø (aggregates size) ([2]; IL 105 μg/mL, no drug, H2O pH4): 1.53 ± 0.07 nm | PDI ([2]; IL 170 μg/mL, no drug, H2O pH4): 0.03 ± 0.016 | Ø (aggregates size) ([2]; IL 170 μg/mL, no drug, H2O pH4): 2.12 ± 0.14 nm | PDI [2, 5]: 0.01 ± 0.005 | Ø (aggregates size) [2, 5]: 2.24 ± 0.47 nm | ζ (zeta potential) [2, 5]: 1.85 ± 0.47 mV | PDI [2, 6]: 0.02 ± 0.005 | Ø (aggregates size) [2, 6]: 2.03 ± 0.46 nm | ζ (zeta potential) [2, 6]: 9.38 ± 1.22 mV | PDI ([2]; IL 180 μg/mL, no drug, CB pH5): 0.01 ± 0.005 | Ø (aggregates size) ([2]; IL 180 μg/mL, no drug, CB pH5): 2.04 ± 0.43 nm | ζ (zeta potential) ([2]; IL 180 μg/mL, no drug, CB pH5): 2.56 ± 0.34 mV | PDI ([2]; IL 180 μg/mL, no drug, PB pH7): 0.004± 0.005 | Ø (aggregates size) ([2]; IL 180 μg/mL, no drug, PB pH7): 1.91 ± 0.27 nm | ζ (zeta potential) ([2]; IL 180 μg/mL, no drug, PB pH7): 10.70 ± 1.16 mV | PDI [2, 7]: 0.01 ± 0.005 | Ø (aggregates size) [2, 7]: 2.40 ± 0.56 nm | ζ (zeta potential) [2, 7]: 4.17 ± 0.20 mV | PDI [2, 8]: 0.02 ± 0.005 | Ø (aggregates size) [2, 8]: 2.14 ± 0.55 nm | ζ (zeta potential) [2, 8]: 12.20 ± 1.96 mV | PDI [2, 9]: 0.02 ± 0.005 | Ø (aggregates size) [2, 9]: 2.11 ± 0.50 nm | ζ (zeta potential) [2, 9]: 12.80 ± 1.27 mV | PDI ([2]; IL 200 μg/mL, no drug, CB pH5): 0.07 ± 0.005 | Ø (aggregates size) ([2]; IL 200 μg/mL, no drug, CB pH5): 2.34 ± 0.66 nm | ζ (zeta potential) ([2]; IL 200 μg/mL, no drug, CB pH5): 2.08 ± 0.13 mV | PDI ([2]; IL 200 μg/mL, no drug, H2O pH4): 0.01 ± 0.005 | Ø (aggregates size) ([2]; IL 200 μg/mL, no drug, H2O pH4): 1.87 ± 0.42 nm | ζ (zeta potential) ([2]; IL 200 μg/mL, no drug, H2O pH4): 14.30 ± 2.33 mV | Relative Viscosity [3, 10]: 0.75 ± 0.01 cP | Relative Viscosity [3, 11]: 1.31 ± 0.26 cP
Compound: CCCCCCOC(=O)C[C@@H](O)C[N+](C)(C)C [Carn6, (R)-(4-hexyloxy-2-hydroxy-4-oxobutyl)-trimethylammonium bromide]
IC50 [4]: 9000 µg/mL | IC50 ([4]; murine fibroblasts): 27.8 mM | bactericidal effect (S. aureus W4): strong bactericidal effect | CFU after treatment (limit of detection) (S. aureus W4): < 100 CFU/mL | bactericidal effect (P. aeruginosa ATCC 27853): strong bactericidal effect | CFU after treatment (limit of detection) (P. aeruginosa ATCC 27853): < 100 CFU/mL
